In patent publication US20220195360A1, “Additive Manufacturing of Functional Myocardial Tissue” (The United States of America, as represented by the …, priority 2017, published 2022):
Like-named read-outs stand apart in the source and are kept apart here.

Legend:
Type in all cases: cell-based
[1] = tested on: neonatal rat cardiomyocytes; settings: 6 day
Procedure: For testing of the systems and methods according to several embodiments, neonatal rat cardiomyocytes were seeded following the formation of a layer of confluent endothelium at the peripheries the microfibers of the scaffolds, which generally occurred in 15 days. Freshly isolated cardiomyocytes were suspended in DMEM at a final concentration of 1×10^6 cells m/L. The scaffolds were individually placed on top of a thin layer of hydrophobic polydimethylsiloxane (PDMS). Approximately 40 μL of cell suspension was dropped to cover each scaffold, and incubated at 37° C. for 2 hours, to allow the cardiomyocytes to adhere onto the microfibers. […]
Live/Dead staining was performed according to the manufacturer's instructions (THERMO FISHER®). Beating of the cardiomyocytes was observed using an optical microscope and analyzed using custom-coded MATLAB programs, as known in the prior art. […] The levels of secreted vWF were measured by an ELISA kit (ab189571) by ABCAM®. […]
(§1) For example, the endothelialized-myocardium-on-a-chip model can be used to assess treatment by a common anti-cancer drug, doxorubicin. Unlike other pre-existing models, where only individual cell types were typically included, doxorubicin elicited dose-dependent responses towards both cardiomyocytes and endothelial cells when assessed using the systems and methods of several embodiments.

[2] = tested on: endothelial cells (HUVECs); test: vWF expression by the endothelial component of the endothelialized-human-myocardium-on-a-chip; settings: different doses, human model (FIG. 8D) compared with rat model (FIG. 7D)
Procedure: (§2) Both bioink 26 and CaCl2) solutions can be maintained at 37° C. before use. HUVECs can be re-suspended in the bioink at a concentration of 1×10^7 cells/mL. Following the bioprinting and the subsequent crosslinking processes, the constructs can be washed with PBS to remove excess CaCl2). After washing, the constructs can be cultured in endothelial cell growth medium (EGM) at 37° C. and 5% CO2 volume throughout a period of up to 33 days. The EGM/CO2 medium can be changed twice in the first day and then every 2 days thereafter.
(§3) Live/Dead staining was performed according to the manufacturer's instructions (THERMO FISHER®). Beating of the cardiomyocytes was observed using an optical microscope and analyzed using custom-coded MATLAB programs, as known in the prior art. Monitoring of the beating behavior was performed every day until contractions were no longer observed. […] The levels of secreted vWF were measured by an ELISA kit (ab189571) by ABCAM®.
(§4) The same procedures for fabricating the vascular beds using bioprinted microfibrous scaffolds as described above were used, but hiPSC-cardiomyocytes were subsequently seeded instead of the neonatal rat cells. […] The human-derived myocardial organoids seemed to have slightly lower endurance at all of the time points analyzed in comparison to those of rat origin (FIG. 8C versus FIG. 7C). […]

[3] = tested on: endothelial cells (HUVECs); settings: human, 6 day
Procedure: as §2, §3, §1

hiPSC-cardiomyocytes = settings: human
Procedure: The seeding of hiPSC-cardiomyocytes can follow the same procedure that is described above for neonatal rat cardiomyocytes, except that a Roswell Park Memorial Institute (RPMI)-1640 medium containing 1×B27 supplements (by GIBCO®) can be used for culturing. Other choices in the prior art that are known for culturing cardiomyocytes might also be possible.
as §3, §4

In the case of `COc1cccc2c1C(=O)c1c(O)c3c(c(O)c1C2=O)C[C@@](O)(C(=O)CO)C[C@@H]3O[C@H]1C[C@H](N)[C@H](O)[C@H](C)O1` [doxorubicin], the “relative beating rate of the cardiomyocytes” value ([1]; 10 μM) is reported as 70.5%, the “relative beating rate of the cardiomyocytes” value ([1]; 100 μM) is reported as 1.62% and the “toxicity on the endothelial component of the constructs (vWF expression)” value [2] is reported as “corresponded well with that observed for the rat myocardial organoids”. For the same compound, the “levels of von Willebrand factor (vWF) secreted by the endothelial cells” value ([3]; 10 μM) was 76.0%, the “levels of von Willebrand factor (vWF) secreted by the endothelial cells” value ([3]; 100 μM) was 35.3% and the “relative beating of the hiPSC-cardiomyocytes” value (hiPSC-cardiomyocytes; 10 μM) was 66.0%. For the same compound, the “relative beating of the hiPSC-cardiomyocytes” value (hiPSC-cardiomyocytes; 100 μM) was 2.78%.
